Assays:
[1] = target: T1, histidine tagged recombinant human full-length Bruton Agammaglobulinemia Tyrosine Kinase (Btk) (Homo sapiens, UniProt Q06187); assay: Btk kinase inhibition assay (fluorescence polarization, KinEASE FP Fluorescein Green); type: biochemical; details: 10 μM ATP, 250 μM substrate, 60 minutes, room temperature; Ki from IC50 by Cheng-Prusoff; read-out: ki50 (nM), Inhibition of Btk
T1 construct: recombinant human full-length Bruton Agammaglobulinemia Tyrosine Kinase (Btk); histidine tag
Description: (§1) Kinase Binding Btk and Lck Kinase Inhibition Assay
(§2) Fluorescence polarization-based kinase assays were performed in 384 well-plate format using histidine tagged recombinant human full-length Bruton Agammaglobulinemia Tyrosine Kinase (Btk) or histidine tagged recombinant Human Lymphocyte-Specific Protein Tyrosine Kinase (Lck) and a modified protocol of the KinEASE™ FP Fluorescein Green Assay supplied from Millipore. Kinase reaction were performed at room temperature for 60 minutes in presence of 250 μM substrate, 10 μM ATP and variable test article concentrations. The reaction was stopped with EDTA/kinease detection reagents and the polarization measured on a Tecan 500 instrument. From the dose-response curve obtained, the IC50 was calculated using Graph Pad Prisms® using a non-linear fit curve. The Km for ATP on each enzyme was experimentally determined and the Ki values calculated using the Cheng-Prusoff equation (see: Cheng Y, Prusoff W H. (1973) Relationship between the inhibition constant (K1) and the concentration of inhibitor which causes 50 percent inhibition (I50) of an enzymatic reaction”. Biochem Pharmacol 22 (23): 3099-108).
(§3) ki values are reported in Tables 2 and 3: • a—Less than 100 nM; b—less than 1000 nM; c—more than 1000 nM

[2] = target: T2, histidine tagged recombinant Human Lymphocyte-Specific Protein Tyrosine Kinase (Lck) (Homo sapiens, UniProt P06239); assay: Lck kinase inhibition assay (fluorescence polarization, KinEASE FP Fluorescein Green); type: biochemical; details: 10 μM ATP, 250 μM substrate, 60 minutes, room temperature; Ki from IC50 by Cheng-Prusoff
T2 construct: histidine tag
Description: as §1, §2, §3

mouse splenocytes = assay: Splenic cell proliferation assay (anti-IgM stimulated B cell proliferation, Cell Titer-Glo); type: cell-based; details: Splenocyte; CD1 mouse splenocytes, 1 h pre-treatment, 2.5 ug/ml anti-IgM F(ab')2 for 72 h; read-out: EC50 (nM), Inhibition of splenic cell proliferation
Description: Splenic Cell Proliferation Assay
Splenocytes were obtained from 6 week old male CD1 mice (Charles River Laboratories Inc.). Mouse spleens were manually disrupted in PBS and filtered using a 70 μm cell strainer followed by ammonium chloride red blood cell lysis. Cells were washed, resuspended in Splenocyte Medium (HyClone RPMI supplemented with 10% heat-inactivated FBS, 0.5× non-essential amino acids, 10 mM HEPES, 50 uM beta mercaptoethanol) and incubated at 37° C., 5% CO2 for 2 h to remove adherent cells. Suspension cells were seeded in 96 well plates at 50,000 cells per well and incubated at 37° C., 5% CO2 for 1 h. Splenocytes were pre-treated in triplicate with 10,000 nM curves of Formula 1 compounds for 1 h, followed by stimulation of B cell proliferation with 2.5 ug/ml anti-IgM F(ab′)2 (Jackson ImmunoResearch) for 72 h. Cell proliferation was measured by Cell Titer-Glo Luminescent Assay (Promega). EC50 values (50% proliferation in the presence of compound as compared to vehicle treated controls) were calculated from dose response compound curves using GraphPad Prism Software.
EC50 values are reported in Table 4: • a—Less than 100 nM; b—less than 1000 nM; c—more than 1000 nM

T2 sequence (P06239 whole entry): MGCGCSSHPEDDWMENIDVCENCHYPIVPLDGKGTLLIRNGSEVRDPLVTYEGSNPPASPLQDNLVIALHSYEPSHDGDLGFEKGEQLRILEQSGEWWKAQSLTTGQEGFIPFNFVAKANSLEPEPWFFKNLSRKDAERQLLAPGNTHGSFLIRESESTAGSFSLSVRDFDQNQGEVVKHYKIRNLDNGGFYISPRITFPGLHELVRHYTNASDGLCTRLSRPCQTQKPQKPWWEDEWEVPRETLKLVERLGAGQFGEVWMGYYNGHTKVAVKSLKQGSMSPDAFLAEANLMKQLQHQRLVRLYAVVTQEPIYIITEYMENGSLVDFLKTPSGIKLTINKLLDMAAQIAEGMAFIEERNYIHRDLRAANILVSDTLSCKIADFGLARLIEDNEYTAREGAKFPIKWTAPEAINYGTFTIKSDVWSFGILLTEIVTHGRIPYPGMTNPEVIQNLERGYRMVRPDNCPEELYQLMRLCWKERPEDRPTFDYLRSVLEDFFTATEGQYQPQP
T1 sequence (Q06187 whole entry): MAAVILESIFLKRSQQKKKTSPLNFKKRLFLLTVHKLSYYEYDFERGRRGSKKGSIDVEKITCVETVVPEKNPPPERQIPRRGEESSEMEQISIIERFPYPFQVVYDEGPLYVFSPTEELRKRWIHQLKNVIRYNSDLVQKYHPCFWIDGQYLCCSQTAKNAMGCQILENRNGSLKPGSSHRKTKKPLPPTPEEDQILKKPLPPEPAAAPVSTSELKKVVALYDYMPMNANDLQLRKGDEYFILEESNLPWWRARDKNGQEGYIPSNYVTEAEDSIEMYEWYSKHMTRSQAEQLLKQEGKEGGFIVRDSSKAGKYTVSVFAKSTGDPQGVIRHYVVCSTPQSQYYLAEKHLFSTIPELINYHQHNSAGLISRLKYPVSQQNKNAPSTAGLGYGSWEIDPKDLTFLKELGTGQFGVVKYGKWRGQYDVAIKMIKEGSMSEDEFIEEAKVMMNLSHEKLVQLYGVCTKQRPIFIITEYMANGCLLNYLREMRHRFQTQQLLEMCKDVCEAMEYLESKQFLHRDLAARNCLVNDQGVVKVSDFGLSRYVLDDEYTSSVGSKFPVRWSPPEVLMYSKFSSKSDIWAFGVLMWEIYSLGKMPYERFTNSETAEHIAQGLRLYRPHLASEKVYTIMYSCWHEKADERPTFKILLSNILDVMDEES

Structure (SMILES) | Ki [1] | Ki [2] | EC50 (mouse splenocytes)
Nc1ncnc2c3c(n(-c4ccc(Oc5ccccc5)cc4)c12)CCC3 [Compound 1] | < 1000 nM | < 100 nM | > 1000 nM
Nc1ncnc2c3c(n(-c4ccc(Oc5ccccc5)cc4)c12)CCNC3 [Compound 8] | > 1000 nM | < 1000 nM | –
Nc1ncnc2c3c(n(-c4ccc(Oc5ccccc5)cc4)c12)CN(S(=O)(=O)c1ccccc1)C3 [Compound 9] | > 1000 nM | < 1000 nM | –
CCN1CCc2c(c3ncnc(N)c3n2-c2ccc(Oc3ccccc3)cc2)C1 [Compound 15] | > 1000 nM | < 100 nM | –
Nc1ncnc2c3c(n(-c4ccc(Oc5ccccc5)cc4)c12)CN(C(=O)c1ccccc1)C3 [Compound 18] | > 1000 nM | < 1000 nM | –
Nc1ncnc2c3c(n(-c4ccc(Cc5ccccc5)cc4)c12)CCC3 [Compound 22] | > 1000 nM | < 100 nM | –
COc1ccc(C(=O)Nc2cccc(Oc3ccc(-n4c5c(c6ncnc(N)c64)C(C)OC5)cc3)c2)cc1 (stereo not shown) [Compound 110] | < 1000 nM | – | > 1000 nM
CC(C)C(=O)Nc1cccc(Oc2ccc(-n3c4c(c5ncnc(N)c53)C(C)OC4)cc2)c1 (stereo not shown) [Compound 111] | < 1000 nM | – | > 1000 nM
CCCC(=O)Nc1cccc(Oc2ccc(-n3c4c(c5ncnc(N)c53)C(C)OC4)cc2)c1 (stereo not shown) [Compound 126] | < 1000 nM | – | 100 to 1000 nM
COc1ccc(OCc2cccc(Oc3ccc(-n4c5c(c6ncnc(N)c64)C(C)OC5)cc3)c2)cc1 (stereo not shown) [Compound 131] | < 100 nM | – | 100 to 1000 nM
COCC(=O)Nc1cccc(COc2cccc(Oc3ccc(-n4c5c(c6ncnc(N)c64)C(C)OC5)cc3)c2)c1 (stereo not shown) [Compound 132] | < 100 nM | – | 100 to 1000 nM
CC1OCc2c1c1ncnc(N)c1n2-c1ccc(Oc2cccc(OCc3cccc(NC(=O)C4CC4)c3)c2)cc1 (stereo not shown) [Compound 133] | < 100 nM | – | < 100 nM
CC1OCc2c1c1ncnc(N)c1n2-c1ccc(Oc2cccc(COc3ccccc3C#N)c2)cc1 (stereo not shown) [Compound 134] | < 100 nM | – | < 100 nM
CC(C)COc1cccc(Oc2ccc(-n3c4c(c5ncnc(N)c53)C(C)OC4)cc2)c1 (stereo not shown) [Compound 135] | < 100 nM | – | 100 to 1000 nM
CCCCOc1cccc(Oc2ccc(-n3c4c(c5ncnc(N)c53)C(C)OC4)cc2)c1 (stereo not shown) [Compound 136] | < 100 nM | – | 100 to 1000 nM
COc1cccc(OCc2cccc(Oc3ccc(-n4c5c(c6ncnc(N)c64)C(C)OC5)cc3)c2)c1 (stereo not shown) [Compound 137] | < 100 nM | – | 100 to 1000 nM
CC1OCc2c1c1ncnc(N)c1n2-c1ccc(Oc2cccc(OCC3CC3)c2)cc1 (stereo not shown) [Compound 138] | < 100 nM | – | 100 to 1000 nM
CC1OCc2c1c1ncnc(N)c1n2-c1ccc(Oc2cccc(OCc3cccc(OCCN(C)C)c3)c2)cc1 (stereo not shown) [Compound 139] | < 100 nM | – | 100 to 1000 nM
CC1OCc2c1c1ncnc(N)c1n2-c1ccc(Oc2cccc(OCC3CCCC3)c2)cc1 (stereo not shown) [Compound 140] | < 1000 nM | – | 100 to 1000 nM
CC(=O)Nc1ccccc1OCc1cccc(Oc2ccc(-n3c4c(c5ncnc(N)c53)C(C)OC4)cc2)c1 (stereo not shown) [Compound 141] | < 1000 nM | – | 100 to 1000 nM
N#Cc1ccccc1OCc1cccc(Oc2ccc(-n3c4c(c5ncnc(N)c53)COC4)cc2)c1 [Compound 142] | < 100 nM | – | 100 to 1000 nM
N#Cc1ccccc1COc1cccc(Oc2ccc(-n3c4c(c5ncnc(N)c53)COC4)cc2)c1 [Compound 143] | < 100 nM | – | 100 to 1000 nM
N#Cc1ccccc1OCc1cccc(Oc2ccc(-n3c4c(c5ncnc(N)c53)CCC4)cc2)c1 [Compound 144] | < 100 nM | – | 100 to 1000 nM

Second part, led by results:

Ki [1] | Ki [2] | Structure (SMILES) | EC50 (mouse splenocytes)
< 100 nM | – | CC1OCc2c1c1ncnc(N)c1n2-c1ccc(Oc2cccc(OCc3cccc(Cl)c3)c2)cc1 (stereo not shown) [Compound 97] | 100 to 1000 nM
< 100 nM | – | CC1OCc2c1c1ncnc(N)c1n2-c1ccc(Oc2cccc(OCc3cccc(F)c3)c2)cc1 (stereo not shown) [Compound 99] | 100 to 1000 nM
< 100 nM | – | CC1OCc2c1c1ncnc(N)c1n2-c1ccc(Oc2cccc(OCc3ccccc3C(F)(F)F)c2)cc1 (stereo not shown) [Compound 100] | < 100 nM
< 100 nM | – | Cc1nc(COc2cccc(Oc3ccc(-n4c5c(c6ncnc(N)c64)C(C)OC5)cc3)c2)cs1 (stereo not shown) [Compound 102] | 100 to 1000 nM
< 100 nM | – | COc1cccc(COc2cccc(Oc3ccc(-n4c5c(c6ncnc(N)c64)C(C)OC5)cc3)c2)c1 (stereo not shown) [Compound 103] | 100 to 1000 nM
< 100 nM | – | COc1ccc(COc2cccc(Oc3ccc(-n4c5c(c6ncnc(N)c64)C(C)OC5)cc3)c2)cc1 (stereo not shown) [Compound 104] | 100 to 1000 nM
< 100 nM | – | CC1OCc2c1c1ncnc(N)c1n2-c1ccc(Oc2cccc(OCc3cccc(C(F)(F)F)c3)c2)cc1 (stereo not shown) [Compound 105] | 100 to 1000 nM
< 100 nM | – | CC(=O)Nc1cccc(COc2cccc(Oc3ccc(-n4c5c(c6ncnc(N)c64)C(C)OC5)cc3)c2)c1 (stereo not shown) [Compound 106] | 100 to 1000 nM
< 100 nM | – | CC1OCc2c1c1ncnc(N)c1n2-c1ccc(Oc2cccc(OCc3ccccc3Cl)c2)cc1 (stereo not shown) [Compound 107] | < 100 nM
< 100 nM | – | COc1ccccc1COc1cccc(Oc2ccc(-n3c4c(c5ncnc(N)c53)C(C)OC4)cc2)c1 (stereo not shown) [Compound 108] | 100 to 1000 nM
< 100 nM | – | CC1OCc2c1c1ncnc(N)c1n2-c1ccc(Oc2cccc(NC(=O)c3ccc(F)cc3)c2)cc1 (stereo not shown) [Compound 112] | 100 to 1000 nM
< 100 nM | – | CC1OCc2c1c1ncnc(N)c1n2-c1ccc(Oc2cccc(OCc3cccc([N+](=O)[O-])c3)c2)cc1 (stereo not shown) [Compound 113] | 100 to 1000 nM
< 100 nM | – | CC(C)CC(=O)Nc1cccc(Oc2ccc(-n3c4c(c5ncnc(N)c53)C(C)OC4)cc2)c1 (stereo not shown) [Compound 114] | 100 to 1000 nM
< 100 nM | – | CC1OCc2c1c1ncnc(N)c1n2-c1ccc(Oc2cccc(CCOc3ccccc3)c2)cc1 (stereo not shown) [Compound 115] | 100 to 1000 nM
< 100 nM | – | CC1OCc2c1c1ncnc(N)c1n2-c1ccc(Oc2cccc(OCc3cccc(N)c3)c2)cc1 (stereo not shown) [Compound 116] | 100 to 1000 nM
< 100 nM | – | Cc1nc(-c2cccc(Oc3ccc(-n4c5c(c6ncnc(N)c64)CCC5)cc3)c2)cs1 [Compound 117] | 100 to 1000 nM
< 100 nM | – | COc1cccc(C(=O)Nc2cccc(Oc3ccc(-n4c5c(c6ncnc(N)c64)C(C)OC5)cc3)c2)c1 (stereo not shown) [Compound 118] | 100 to 1000 nM
< 100 nM | – | CC1OCc2c1c1ncnc(N)c1n2-c1ccc(Oc2cccc(NC(=O)c3cccc(Cl)c3)c2)cc1 (stereo not shown) [Compound 119] | 100 to 1000 nM
< 100 nM | – | CC1OCc2c1c1ncnc(N)c1n2-c1ccc(Oc2cccc(NC(=O)c3ccc(Cl)cc3)c2)cc1 (stereo not shown) [Compound 120] | 100 to 1000 nM
< 100 nM | – | CC1OCc2c1c1ncnc(N)c1n2-c1ccc(Oc2cccc(NC(=O)c3cccc(F)c3)c2)cc1 (stereo not shown) [Compound 121] | 100 to 1000 nM
< 100 nM | – | N#Cc1ccccc1COc1cccc(Oc2ccc(-n3c4c(c5ncnc(N)c53)CCC4)cc2)c1 [Compound 122] | 100 to 1000 nM
< 100 nM | – | COc1cccc(COc2cccc(Oc3ccc(-n4c5c(c6ncnc(N)c64)CCC5)cc3)c2)c1 [Compound 123] | 100 to 1000 nM
< 100 nM | – | CC1OCc2c1c1ncnc(N)c1n2-c1ccc(Oc2cccc(OCCC3CCCCC3)c2)cc1 (stereo not shown) [Compound 124] | 100 to 1000 nM
< 100 nM | – | CC1OCc2c1c1ncnc(N)c1n2-c1ccc(Oc2cccc(NC(=O)c3ccccc3F)c2)cc1 (stereo not shown) [Compound 125] | 100 to 1000 nM
< 100 nM | – | COc1ccccc1C(=O)Nc1cccc(Oc2ccc(-n3c4c(c5ncnc(N)c53)C(C)OC4)cc2)c1 (stereo not shown) [Compound 127] | 100 to 1000 nM
< 100 nM | – | Nc1ncnc2c3c(n(-c4ccc(Oc5cccc(OCc6ccc(Cl)cc6)c5)cc4)c12)CCC3 [Compound 128] | 100 to 1000 nM
< 100 nM | – | COc1ccc(COc2cccc(Oc3ccc(-n4c5c(c6ncnc(N)c64)CCC5)cc3)c2)cc1 [Compound 129] | 100 to 1000 nM
< 100 nM | – | CC(=O)Nc1cccc(COc2cccc(Oc3ccc(-n4c5c(c6ncnc(N)c64)CCC5)cc3)c2)c1 [Compound 130] | 100 to 1000 nM

Source: patent publication US9624239B2, “Protein kinase inhibitors” (Pharmascience Inc., priority 2011, dated 2017)
